Reference: patent publication US20030083271A1, “Topoisomerase I selective cytotoxic sugar derivatives of indolopyrrolocarbazoles” (priority 2001, published 2003)

How the values were obtained:
[1] = target: T1, purified human topoisomerase I (Homo sapiens, UniProt P11387); experiment: Topoisomerase I-mediated single strand DNA break induction (in vitro); assay type: biochemical; settings: median effect concentration for inducing single-strand breaks in the DNA substrate; read-out: Topo I EC50
T1 construct: purchased Topogen
T1 sequence (P11387 1-765): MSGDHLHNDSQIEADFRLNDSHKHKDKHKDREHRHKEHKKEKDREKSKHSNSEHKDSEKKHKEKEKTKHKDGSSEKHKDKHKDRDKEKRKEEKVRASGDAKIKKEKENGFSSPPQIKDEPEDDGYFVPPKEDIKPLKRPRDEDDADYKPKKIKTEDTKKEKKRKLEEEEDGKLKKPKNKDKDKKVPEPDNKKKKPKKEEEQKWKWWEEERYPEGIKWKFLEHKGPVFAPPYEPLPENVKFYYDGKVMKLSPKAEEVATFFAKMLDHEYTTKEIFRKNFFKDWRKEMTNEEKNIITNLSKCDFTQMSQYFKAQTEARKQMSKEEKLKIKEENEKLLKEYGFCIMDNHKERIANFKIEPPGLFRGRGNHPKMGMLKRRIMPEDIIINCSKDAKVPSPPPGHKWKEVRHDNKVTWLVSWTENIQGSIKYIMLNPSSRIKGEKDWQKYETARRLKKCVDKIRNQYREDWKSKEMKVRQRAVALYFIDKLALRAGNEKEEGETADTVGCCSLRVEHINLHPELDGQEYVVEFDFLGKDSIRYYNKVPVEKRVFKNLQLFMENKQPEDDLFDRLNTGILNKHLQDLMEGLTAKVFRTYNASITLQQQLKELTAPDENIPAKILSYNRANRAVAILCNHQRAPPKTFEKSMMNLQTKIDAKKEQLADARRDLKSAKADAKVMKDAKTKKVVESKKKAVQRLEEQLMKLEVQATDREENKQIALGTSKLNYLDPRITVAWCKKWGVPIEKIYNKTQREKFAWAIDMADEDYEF
Method: Topoisomerase I activity was measured as described below. The procedure for assaying compound-induced, topoisomerase I-mediated single strand breaks in DNA was essentially that described by Hsiang, et al., (J. Biol. Chem. 1985, 260, 14873-14878). Samples dissolved in 100% DMSO as either […] or 10 mg/ml solutions, unless otherwise stated, were diluted in Tris-EDTA buffer. Marine bacteriophage PM2 DNA (Boehringer Mannheim) was also diluted in Tris-EDTA buffer to a concentration of 0.02 μg/μl. Different dilutions of the compound being evaluated were mixed with diluted DNA and this mixture was added to […] (one unit of enzyme activity is defined as the amount capable of relaxing 100 ng of supercoiled DNA in approximately 30 minutes at 37° C.) aliquots of purified human topoisomerase I (Topogen) in 2X reaction buffer to start the reaction. The compound-DNA-enzyme mixture was incubated for 30 minutes at 37° C. before stopping the reaction with warm stop buffer containing sodium dodecyl sulfate and proteinase K (Sigma). These mixtures were allowed to incubate at 37° C. for another 10 minutes, at which time the mixtures were removed from the waterbath and extracted with a 24:1 mixture of chloroform/isoamyl alcohol. Following centrifugation, aliquots of the aqueous phases were placed in wells of a 0.9% agarose (SeaKem) gel in Tris-borate buffer containing 0.5 μg/ml of ethidium bromide and subjected to electrophoresis for 15 hours to separate the different topological isomers and nicked and broken DNAs. After destaining the gel in water, the ethidium bromide stained DNA reaction products were visualized by exposing the gel to UV irradiation. Negatives of the photographs of the irradiated gels were scanned with a densitometer and areas under the peaks were calculated in order to obtain percent single strand DNA break formation for each sample. A median effective concentration (EC50) was obtained for each compound by interpolation between points of the resulting dose-effect curve which defines the potency of the compound for its effect in inducing topoisomerase I-mediated single strand breaks in DNA. The topoisomerase I activities for certain compounds of the present invention are shown below in Table I.

P388/CPT45 cells [2] = experiment: Cytotoxicity in camptothecin-resistant P388/CPT45 cells relative to parental P388 (selectivity index R/S); assay type: cell-based, murine; settings: IC50 P388/CPT45 cells divided by IC50 parental P388 cells
Source text: The present invention includes fluoro sugar and other sugar derivatives of indolopyrrolocarbazoles of formula (I), as defined above. […] Most importantly, the instant invention describes topo I active compounds, related to compounds disclosed in WO 98/07433 and co-pending U.S. application, Ser. No. 08/914566 (both herein incorporated by reference), which display a surprising and unexpected selectivity index when evaluated for cytotoxicity in certain cell lines which express normal levels of topo I required for cell proliferation, compared with cell lines that are deficient in or underexpress topo I. Said “selectivity index” (R/S) was generated by dividing the cytotoxic IC50 of a particular compound against a camptothecin-resistant murine leukemia cell line, P388/CPT45, by the IC50 generated when using the parent P388 cell line. […] A level of selectivity was judged to be advantageous and beneficial in, for example, modulating potential undesirable side effects and/or toxicity. The compounds of the present invention were selected from compounds generically disclosed in WO 98/07433 and co-pending U.S. patent application, Ser. No. 08/914566, on the basis of an unexpected and unpredictable selectivity index (see Table I and II). […] Simple changes in the substitution of the sugar portion or the indolopyrrolocarbazole portion of the present invention will change the selectivity. This change in selectivity is not predictable by one skilled in the art.
(§1) Similarly, P338 murine leukemia cells were maintained in RPMI 1640 supplemented with 20% fetal bovine serum and 10 μM 2-mercaptoethanol. A camptothecin resistant subline, P388/CPT45, was selected for resistance to camptothecin and is over 1000-fold resistant to this compound (Woessner, et al. Oncol. Res. 1992, 4, 481-488).
(§2) In vitro cytotoxicity was assessed in tissue culture cells by MTS (3-(4,5-dimethylthiazol-2-yl)-5-(3-carboxymethoxyphenyl)-2-(4-sulphenyl)-2H-tetrazolium, inner salt) assay (Riss and Moravec, Mol. Biol. Cell 1992, 3 (Suppl.), 184a). Cells were plated at 8,000 cell/well in 96 well microtiter plates and 24 hours later serial dilutions of the test compounds were made and added to the cells. The cells were incubated at 37° C. for 72 hours, at which time the tetrazolium dye, MTS at 333 μg/ml (final concentration), in combination with the electron coupling agent phenazine methosulfate at 25 μM (final concentration) was added. A dehydrogenase enzyme in live cells reduces the MTS to a form that absorbs light at 492 nm which can be quantitated spectrophotometrically. The greater the absorbance the greater the number of live cells. The results are expressed as an IC50, which is the drug concentration required to inhibit cell proliferation (i.e., absorbance at 492 nm) to 50% of that of untreated control cells.
The selectivity index (R/S) is defined as the ratio obtained by dividing the IC50 value obtained using P388/CPT45 cells by that obtained using parental P388 cells. The R/S ratios used to determine the relative topo I selectivity of selected compounds of this invention are shown below in Table I.

HT-29 colon carcinoma = experiment: In vivo antitumor activity, HT-29 xenograft; parameters: species or system Balb/c athymic (nude) female mice
Method: Compounds: Examples of this invention were administered in an appropriate vehicle such as cremophor/ethanol/water (10%/10%/80%), in normal saline, water/carboxymethylcellulose vehicle.
All compounds were tested at several dose levels, with attempts each time to achieve their maximum tolerated dose (MTD). […] The optimal dose (OD) was the dose producing the best therapeutic effect, and was usually, but not always, synonymous with the MTD.
Tumors: Human tumors (HCT-116 and HT-29 colon carcinomas) were grown as xenografts in Balb/c athymic (nude) female mice. Antitumor assays. All tumors were implanted subcutaneously (sc) as 3-4mm fragments using a 13 gauge trochar. There were generally eight mice per treatment and control group. When treatment was delayed until tumors had obtained a certain size (weight), referred to as a staged tumor experiment (expt.), tumor-bearing mice were selected so that their tumors fell within a limited range of sizes for the particular expt.
Tumors were measured by calipers, and tumor weight calculated by the formula length (mm) times (×) width (mm)^2/2=tumor weight (mg). The median time (in days) to reach a predetermined tumor target size (for example, 500 mg) for untreated, control (C) mice relative to the time to reach the same target size for treated (T) mice, was calculated as a T-C value. T-C values were divided by the tumor volume doubling time (TVDT), and multiplied by 3.32, to yield a gross log cell kill (LCK) value, [i.e., (T-C)/TVDT×3.32=LCK].
A mouse was considered cured if there was no palpable tumor after a period of time equal to 10×TVDT post-reatment (Rx).

[3] = tested on: P388 murine leukemia cells; experiment: In vitro cell-based cytotoxicity, parental P388 cells; settings: Mus musculus, 72 h, median cytotoxic concentration, 3 days continuous exposure
Method: The proliferation inhibition activity against the murine P388 cell line was measured as follows. Evaluation of a soluble tetrazolium/formazan assay for cell growth and drug sensitivity in culture, using human and other tumor cell lines, was done according to the procedure described in Cancer Res. 1988, 48, 4827-4833. Cells were plated at 4000 cells/well in 96 well microtiter plates and 24 h later drugs were added and serially diluted. The cells were incubated at 37° C. for 72 h, at which time a tetrazolium dye, XTT, containing phenazine methosulfate was added. A dehydrogenase enzyme in live cells reduced the XTT to a form that absorbs light at 450 nm, which could be quantitated spectrophotometrically. The greater the absorbance the greater the number of live cells. The results are expressed as an IC50, which is the drug concentration required to inhibit cell proliferation (i.e., absorbance at 450 nm) to 50% of that of untreated control cells.
as §1, §2
The cytotoxic activity for certain compounds of the present invention, in both parental P388 and the camptothecin-resistant P388/CPT45 cell lines are shown below in Table I.

P388/CPT45 cells [4] = settings: P388/CPT45 versus parental P388; cited from earlier work

| EC50 [1] [nM] | SMILES | Selectivity Index R/S (P388/CPT45 cells [2]) | LCK (gross log cell kill) (HT-29 colon carcinoma; HT29 sc xenograft in nude mice, at optimal or maximum tolerated dose, CPT-11 run as comparator in same experiment) | MTD (optimal or maximum tolerated dose level tested) (HT-29 colon carcinoma; HT29 xenograft experiment, nude mice) [mpkpi] | IC50 [3] [nM] | fold resistance of P388/CPT45 subline (P388/CPT45 cells [4]) |
| --- | --- | --- | --- | --- | --- | --- |
| 180 | NC[C@H]1O[C@@H](n2c3ccc(F)cc3c3c4c(c5c6ccccc6sc5c32)C(=O)NC4=O)[C@H](O)[C@@H](O)[C@@H]1O [Example 36] | <1.1 | – | – | 8990 | – |
| 240 | O=C1NC(=O)c2c1c1c3ccc(F)cc3[nH]c1c1c2c2ccc(F)cc2n1[C@@H]1O[C@H](CO)[C@@H](O)[C@H](O)[C@H]1O [Example 37] | 8.7 | – | – | 260 | – |
| 100 | O=C1NC(=O)c2c1c1c3cc(F)ccc3[nH]c1c1c2c2cc(F)ccc2n1[C@H]1O[C@H](CF)[C@@H](O)[C@H](O)[C@H]1O [Example 39] | 5.0 | – | – | 235 | – |
| 20 | NC[C@@H]1C[C@H](O)[C@@H](O)[C@H](n2c3ccc(F)cc3c3c4c(c5c6cc(F)ccc6[nH]c5c32)C(=O)NC4=O)O1 [Example 41] | 27.3 | – | – | 72 | – |
| – | CC[C@@]1(O)C(=O)OCc2c1cc1n(c2=O)Cc2cc3ccccc3nc2-1 [camptothecin] | – | – | – | – | over 1000 fold |

| SMILES | EC50 [1] [nM] | Selectivity Index R/S (P388/CPT45 cells [2]) | LCK (gross log cell kill) (HT-29 colon carcinoma; HT29 sc xenograft in nude mice, at optimal or maximum tolerated dose, CPT-11 run as comparator in same experiment) | MTD (optimal or maximum tolerated dose level tested) (HT-29 colon carcinoma; HT29 xenograft experiment, nude mice) [mpkpi] | IC50 [3] [nM] | fold resistance of P388/CPT45 subline (P388/CPT45 cells [4]) |
| --- | --- | --- | --- | --- | --- | --- |
| O=C1NC(=O)c2c1c1c3cc(F)c(F)cc3sc1c1c2c2cc(F)c(F)cc2n1[C@@H]1O[C@H](CO)C(F)(F)[C@H](O)[C@H]1O [Example 30, 12-[4,4-Difluoro-4-deoxy-β-D-glucopyranosyl]-2,3,9,10-tetrafluoro-5H, 13H-benzo[b]thienyl[2,3-a]pyrrolo[3,4c]carbazole-5,7(6H)-dione] | 10 | 575.5 | >1.4 | 16 | – | – |
